Patent publication US8252832B2, “Kinesin inhibitors as cancer therapeutics” (Novartis AG, priority 2007, dated 2012)

How the values were obtained:
Format in all cases: in vivo, mouse
HCT116 tumor xenograft = HCT116 tumor xenograft model, tumor response
Protocol: The cell line HCT-116 has been widely used in the evaluation of mitotic inhibitors such as microtubule disruptors, mitotic kinase inhibitors and KSP inhibitors. […] Experiments were performed using outbred athymic nu/nu mice approximately 6-8 weeks old (Charles River Laboratories, Hollister, Calif.). […] Mice were housed 4-5 animals per cage in clear polycarbonate micro-isolator cages with a 12-hour light, 12-hour dark cycle at temperatures between 70-80 degrees Fahrenheit and 30-70% relative humidity. Food (Purina rodent chow pellets) and water were provided ad libitum. Mice were handled in accordance with Novartis ACUC regulations and guidelines and the ILAR Guide for the Care and Use of Laboratory Animals. Experiments were performed in an AAALAC accredited facility under an ACUC approved protocol.
(§1) Compound IIa (free base) and SB-715992 (ispinesib, a KSP inhibitor by Cytokinetics that is in clinical trials; as its free base) were formulated in 20% Captisol® for all the above doses for a dose volume of 8 mL/kg. Doses were adjusted to each animal's body weight.
Human HCT116 colon carcinoma cells were obtained from the National Cancer Institute's DCTD Tumor Repository (catalog #NCI-502568, Rockville, Md.) and tested to be free of Mycoplasma sp. and murine viruses in the IMPACT1 PCR assay panel (RADIL, University of Missouri, Columbia, Mo.). HCT116 cells were grown in RPMI 1640 with 2 mM L-glutamine (Mediatech Inc., catalog #15-040-CV) supplemented with 10% fetal bovine serum (JRH Biosciences, catalog #12003-1000M). These cells were grown as adherent cultures, maintained at 37° C. in a humidified atmosphere containing 5% carbon dioxide. Cells were cultured for fewer than 10 passages prior to use. Cells were harvested at 95% confluency, and centrifuged at ˜800×g for 5 minutes at 4° C. and then resuspended in a cold HBSS (Mediatech Inc., catalog #21-021-CV) at a concentration of 50 million cells/mL for implantation subcutaneously (injection volume of 0.1 mL).
(§2) Female nu/nu mice (Charles River, Hollister, Calif.) were injected subcutaneously in the right flank with 5 million HCT-116 tumor cells suspended in Hank's Balanced Salt Solution (HBSS) in a total volume of 0.1 mL/mouse. For the efficacy studies, mice were randomized 10 days post-implant. […] Tumor volume was calculated as (L×W2)/2. […] Percent treatment/control (T/C) values were calculated using the following formula: % T/C=100×ΔT/ΔC
All data were expressed as mean and SEM. Between-groups comparisons for final tumor measurements were performed using the one-way ANOVA pair-wise analysis. Significance was determined using Kruskal-Wallis one-way ANOVA on Ranks and Dunn's method for multiple pair-wise comparisons. Statistical analysis was carried out using SigmaStat (Systat Software Inc., San Jose, Calif.).

[1] = HCT116 tumor xenograft model, host response (body weight, survival, neutrophils); conditions: q4d × 3
Protocol: The cell line HCT-116 has been widely used in the evaluation of mitotic inhibitors such as microtubule disruptors, mitotic kinase inhibitors and KSP inhibitors. A multi-dose efficacy study on a […] (q4d×3) dosing schedule was performed. Experiments were performed using outbred athymic nu/nu mice approximately 6-8 weeks old (Charles River Laboratories, Hollister, Calif.). […] Mice were housed 4-5 animals per cage in clear polycarbonate micro-isolator cages with a 12-hour light, 12-hour dark cycle at temperatures between 70-80 degrees Fahrenheit and 30-70% relative humidity. Food (Purina rodent chow pellets) and water were provided ad libitum. Mice were handled in accordance with Novartis ACUC regulations and guidelines and the ILAR Guide for the Care and Use of Laboratory Animals. Experiments were performed in an AAALAC accredited facility under an ACUC approved protocol.
as §1, §2
Since a dose as low as 1.25 mg/kg on a q4d×3 schedule induced regression of HCT116 xenografts, the efficacy study was repeated with a range of doses from 2 to 0.125 mg/kg to observe a dose response and determine how low a dose can be given to induce tumor regression. […] Only the 7.5 mg/kg dose of SB-715992 induced tumors to regress. Additionally, 72 hrs after the last dose, blood was collected to compare the circulating neutrophil levels among groups. Neutrophils were reduced in a dose responsive manner, similar to the tumor efficacy effect.

[2] = Subcutaneous MV4; 11 tumor xenograft model, host response
Protocol: Subcutaneous tumor efficacy studies were performed using outbred athymic nu/nu mice approximately 6-8 weeks old (Charles River Laboratories, Hollister, Calif.). The efficacy study in the disseminated disease model was performed using immunodeficient NOD-SCID female mice approximately 7-8 weeks old (Jackson Laboratories, Bar Harbor, Me.). […] Routine animal care and assurance of welfare were as described above.
The compound IIa (free base) and SB-715992 (free base) were formulated in 20% Captisol for a dose volume of 8 mL/kg. Doses were adjusted to each animal's body weight.
For the two efficacy evaluations in the subcutaneous tumor model, 10 million cells combined in a 1:1 mixture of HBSS and Matrigel™ were injected subcutaneously in the right flank in a total volume of 0.2 mL/mouse. […] Tumor volume was calculated as (L×W2)/2.

[3] = Subcutaneous KMS-11-luc tumor xenograft model, host response
Protocol: Experiments were performed using immunodeficient SCID-Beige female mice approximately 7-8 weeks old (Charles River Laboratories, Wilmington, Mass.). […] Routine animal care and assurance of welfare were as described above.
Compound IIa and SB-715992 (free base) were formulated in 20% Captisol for a dose volume of 8 mL/kg. Doses were adjusted to each animal's body weight.
For the efficacy evaluation in the subcutaneous tumor model, 10 million cells combined in a 1:1 mixture of HBSS and Matrigel™ were injected subcutaneously in the right flank in a total volume of […]. […] Tumor volume was calculated as (L×W2)/2. […] Data analysis was as described above.

CC(C)(C)[C@H](c1nc(-c2cc(F)ccc2F)cn1Cc1ccccc1)N(CC[C@H](N)CF)C(=O)CO [Compound IIa]
T/C, Day 24 (%) (HCT116 tumor xenograft; 0.125 mg/kg, i.v., q4d × 3): 81% | Δ Tumor volume, Day 24 (HCT116 tumor xenograft; 0.125 mg/kg, i.v., q4d × 3): 809 ± 193 mm^3 | anti-tumor effect (HCT116 tumor xenograft; 0.125 mg/kg, q4d×3): not significantly different from vehicle control | T/C, Day 24 (%) (HCT116 tumor xenograft; 0.25 mg/kg, i.v., q4d × 3): 35% | Δ Tumor volume, Day 24 (HCT116 tumor xenograft; 0.25 mg/kg, i.v., q4d × 3): 382 ± 120 mm^3 | T/C, Day 24 (%) (HCT116 tumor xenograft; 0.5 mg/kg, i.v., q4d × 3): 14% | Δ Tumor volume, Day 24 (HCT116 tumor xenograft; 0.5 mg/kg, i.v., q4d × 3): 155 ± 145 mm^3 | Max. % Regression (Day) (HCT116 tumor xenograft; 0.5 mg/kg, i.v., q4d × 3, D14): 8% | Δ Tumor volume, Day 24 (HCT116 tumor xenograft; 1 mg/kg, i.v., q4d × 3): −34 ± 36 mm^3 | Max. % Regression (Day) (HCT116 tumor xenograft; 1 mg/kg, i.v., q4d × 3, D17): 46% | Δ Tumor volume, Day 17 (HCT116 tumor xenograft; 1.25 mg/kg, i.v., q4d × 3): −173 ± 12 mm^3 | Max. % Regression (Day) (HCT116 tumor xenograft; 1.25 mg/kg, i.v., q4d × 3, D20): 66% | Δ Tumor volume, Day 24 (HCT116 tumor xenograft; 2 mg/kg, i.v., q4d × 3): −141 ± 48 mm^3 | Max. % Regression (Day) (HCT116 tumor xenograft; 2 mg/kg, i.v., q4d × 3, D21): 73% | Δ Tumor volume, Day 17 (HCT116 tumor xenograft; 2.5 mg/kg, i.v., q4d × 3): −208 ± 17 mm^3 | Max. % Regression (Day) (HCT116 tumor xenograft; 2.5 mg/kg, i.v., q4d × 3, D20): 82% | Δ Tumor volume, Day 17 (HCT116 tumor xenograft; 5 mg/kg, i.v., q4d × 3 (only first two doses given)): −196 ± 11 mm^3 | Max. % Regression (Day) (HCT116 tumor xenograft; 5 mg/kg, i.v., q4d × 3 (only first two doses given), D20): 73% | anti-tumor effect (HCT116 tumor xenograft; as low as 0.25 mg/kg, q4d×3, during the dosing interval): tumor stasis | Survival (alive/total) ([1]; 0.125 mg/kg, i.v.): 9/9 | Survival (alive/total) ([1]; 0.25 mg/kg, i.v.): 9/9 | Survival (alive/total) ([1]; 0.5 mg/kg, i.v.): 9/9 | Survival (alive/total) ([1]; 1 mg/kg, i.v.): 9/9 | Survival (alive/total) ([1]; 1.25 mg/kg, i.v.): 9/9 | Survival (alive/total) ([1]; 2 mg/kg, i.v., (body weight loss)): 8/9 (body | Survival (alive/total) ([1]; 2.5 mg/kg, i.v.): 9/9 | Survival (alive/total) ([1]; 5 mg/kg, i.v., (body weight loss)): 8/9 (body | Survival (alive/total) ([2]; 0.625 mg/kg, q4d × 3, i.v.): 4/4 | Survival (alive/total) ([2]; 4 mg/kg, q4d × 3, i.v.): 9/9 | Survival (alive/total) ([2]; Study 2, 0.13 mg/kg, q4d × 3, i.v): 9/9 | Survival (alive/total) ([2]; Study 2, 0.25 mg/kg, q4d × 3, i.v): 9/9 | Survival (alive/total) ([2]; Study 2, 0.5 mg/kg, q4d × 3, i.v): 9/9 | Survival (alive/total) ([2]; Study 2, 1 mg/kg, q4d × 3, i.v): 9/9 | Survival (alive/total) ([2]; Study 2, 2 mg/kg, q4d × 3, i.v): 9/9 | Survival (alive/total) ([3]; 0.25 mg/kg, Q4d × 3, i.v): 9/9 | Survival (alive/total) ([3]; 0.5 mg/kg, Q4d × 3, i.v): 9/9 | Survival (alive/total) ([3]; 1 mg/kg, Q4d × 3, i.v): 8/9

CC(=O)O[C@H]1C(=O)[C@@]2(C)[C@H]([C@H](OC(=O)c3ccccc3)[C@]3(O)C[C@H](OC(=O)[C@H](O)[C@@H](NC(=O)c4ccccc4)c4ccccc4)C(C)=C1C3(C)C)[C@]1(OC(C)=O)CO[C@@H]1C[C@@H]2O [Paclitaxel, reference compound]
Δ Tumor volume, Day 17 (HCT116 tumor xenograft; 30 mg/kg, i.p., q4d × 3): −80 ± 3 mm^3 | Max. % Regression (Day) (HCT116 tumor xenograft; 30 mg/kg, i.p., q4d × 3, D17): 31% | Survival (alive/total) ([1]; 30 mg/kg, i.p.): 9/9 | Survival (alive/total) ([2]; 1 mg/kg, q4d × 3, i.p.): 9/9 | Survival (alive/total) ([3]; 30 mg/kg, Q4d × 3, i.p.): 9/9
